Assay results as given in patent publication US20200316230A1, “DEVICES AND METHODS FOR RADIOPHARMACEUTICAL SYNTHESIS” (VANDERBILT UNIVERSITY, priority 2019, published 2020).

Test: microPET imaging of rat brain with [^18F]fallypride produced in the microfluidic chip
Format: in vivo
Settings: microPET for about 2 hours, dose of about 300 μCi injected
Description: To further verify the utility of the resulting [^18F]fallypride, we produced (using the integrated microfluidic chip) a dose of about 300 μCi with about 19.55 Ci/μmol (723.35 GBq/μmol) of specific activity and about 98.62% of radiochemical purity, and obtained PET data from a rat brain. The time point used to calculate the specific activity was at the end of production, namely the time when the purified [^18F]fallypride was retrieved from chip. The rat was brought to the imaging lab to habituate about 3 hours prior to imaging. Sbout 0.1 ml purified [^18F] fallypride was filtered through an about 0.45 μm filter (Millex-HV) and about 0.9 ml saline was added to formulate the PET probe used for rat injection. […] The accumulation and pharmacokinetics of [^18F]fallypride were as expected when evaluated in the rat brain.

accumulation and pharmacokinetics of [^18F]fallypride in the rat brain: as expected
SMILES: C=CCN1CCC[C@H]1CNC(=O)c1cc(CCC[18F])cc(OC)c1OC [[^18F]fallypride]
